The record followed here is ChEMBL document CHEMBL1201862, “PubChem BioAssay data set” (2004).

The test system of one test is H9c2. Briefly: cells. Conditions: Rattus norvegicus, H9c2, Myocardium. In kind it is functional, cell-based.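 Also: confirmatory concentration-response retest of ultra-high-throughput screening hits for modulation of myocardial damage; cell death induced by hydrogen peroxide oxidative stress; compound pretreatment for 60 min then peroxide exposure for 2 h; potency is for protecting the cells against peroxide damage rather than for killing them.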
The test system of another test is Vero. Briefly: Vero cell cytotoxicity, cytotoxicity control for flavivirus capping enzyme inhibitors (AID 588742). In kind it is functional. The following applies: Chlorocebus sabaeus.
Test [1] has as its target T1, Corticotropin-releasing factor receptor 2/Corticotropin-releasing factor-binding protein (Homo sapiens, UniProt P24387+Q13324).
T1 sequence (Q13324 whole entry): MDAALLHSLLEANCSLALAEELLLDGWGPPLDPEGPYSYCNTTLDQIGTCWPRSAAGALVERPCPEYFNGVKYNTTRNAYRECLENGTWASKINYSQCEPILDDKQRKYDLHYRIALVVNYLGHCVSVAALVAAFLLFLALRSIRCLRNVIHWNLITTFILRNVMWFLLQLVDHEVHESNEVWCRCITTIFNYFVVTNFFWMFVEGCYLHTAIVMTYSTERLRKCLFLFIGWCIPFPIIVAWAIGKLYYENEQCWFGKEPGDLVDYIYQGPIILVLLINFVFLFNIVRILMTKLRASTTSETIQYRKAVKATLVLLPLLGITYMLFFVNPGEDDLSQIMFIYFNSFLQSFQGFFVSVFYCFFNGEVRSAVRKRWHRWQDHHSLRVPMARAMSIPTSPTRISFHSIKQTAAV
T1 sequence (P24387 whole entry): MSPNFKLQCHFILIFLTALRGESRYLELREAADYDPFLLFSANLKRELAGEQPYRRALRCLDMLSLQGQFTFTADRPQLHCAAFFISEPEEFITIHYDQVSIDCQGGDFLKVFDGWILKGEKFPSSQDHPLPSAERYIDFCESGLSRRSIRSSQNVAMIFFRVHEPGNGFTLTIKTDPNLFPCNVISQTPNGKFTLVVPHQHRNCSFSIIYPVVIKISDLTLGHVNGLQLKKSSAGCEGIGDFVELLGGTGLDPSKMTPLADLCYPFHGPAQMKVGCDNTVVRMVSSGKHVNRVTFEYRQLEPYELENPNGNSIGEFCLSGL
Briefly: activators of CRF receptor 2 with binding protein – uHTS hits, confirmation (AID 602473). The following applies: read-out: EC50_Mean. In kind it is functional.

The target of another test is Genome polyprotein (dengue virus type 2, UniProt P29990). The experiment in a line: Dengue-2 NS5 methyltransferase inhibitors, primary screen, biochemical, confirmation dose response (AID 588689). In kind it is functional.
A further test has as its system H4. Briefly: Luminescence Cell-Based Dose Response HTS to Identify Activators of 5'UTR Stem-Loop Driven Prion Protein mRNA Translation in H4 Neuroglioblastoma Cells. [Related pubchem assays: 1829 (Project Summary), 1814 (Primary HTS)]. It is filed as functional. Conditions: Homo sapiens.
The nature of test [2]: Luminescence Cell-Based Dose Response HTS to Identify Activators of Luciferase Translation or Activity in H4 […] Cells. [Related pubchem assays: 1829 (Project Summary), 1814 (Primary HTS)]. In kind it is functional.
Test [3] addresses T2, Apoptotic protease-activating factor 1 (Homo sapiens, UniProt O14727).
T2 sequence (O14727 whole entry): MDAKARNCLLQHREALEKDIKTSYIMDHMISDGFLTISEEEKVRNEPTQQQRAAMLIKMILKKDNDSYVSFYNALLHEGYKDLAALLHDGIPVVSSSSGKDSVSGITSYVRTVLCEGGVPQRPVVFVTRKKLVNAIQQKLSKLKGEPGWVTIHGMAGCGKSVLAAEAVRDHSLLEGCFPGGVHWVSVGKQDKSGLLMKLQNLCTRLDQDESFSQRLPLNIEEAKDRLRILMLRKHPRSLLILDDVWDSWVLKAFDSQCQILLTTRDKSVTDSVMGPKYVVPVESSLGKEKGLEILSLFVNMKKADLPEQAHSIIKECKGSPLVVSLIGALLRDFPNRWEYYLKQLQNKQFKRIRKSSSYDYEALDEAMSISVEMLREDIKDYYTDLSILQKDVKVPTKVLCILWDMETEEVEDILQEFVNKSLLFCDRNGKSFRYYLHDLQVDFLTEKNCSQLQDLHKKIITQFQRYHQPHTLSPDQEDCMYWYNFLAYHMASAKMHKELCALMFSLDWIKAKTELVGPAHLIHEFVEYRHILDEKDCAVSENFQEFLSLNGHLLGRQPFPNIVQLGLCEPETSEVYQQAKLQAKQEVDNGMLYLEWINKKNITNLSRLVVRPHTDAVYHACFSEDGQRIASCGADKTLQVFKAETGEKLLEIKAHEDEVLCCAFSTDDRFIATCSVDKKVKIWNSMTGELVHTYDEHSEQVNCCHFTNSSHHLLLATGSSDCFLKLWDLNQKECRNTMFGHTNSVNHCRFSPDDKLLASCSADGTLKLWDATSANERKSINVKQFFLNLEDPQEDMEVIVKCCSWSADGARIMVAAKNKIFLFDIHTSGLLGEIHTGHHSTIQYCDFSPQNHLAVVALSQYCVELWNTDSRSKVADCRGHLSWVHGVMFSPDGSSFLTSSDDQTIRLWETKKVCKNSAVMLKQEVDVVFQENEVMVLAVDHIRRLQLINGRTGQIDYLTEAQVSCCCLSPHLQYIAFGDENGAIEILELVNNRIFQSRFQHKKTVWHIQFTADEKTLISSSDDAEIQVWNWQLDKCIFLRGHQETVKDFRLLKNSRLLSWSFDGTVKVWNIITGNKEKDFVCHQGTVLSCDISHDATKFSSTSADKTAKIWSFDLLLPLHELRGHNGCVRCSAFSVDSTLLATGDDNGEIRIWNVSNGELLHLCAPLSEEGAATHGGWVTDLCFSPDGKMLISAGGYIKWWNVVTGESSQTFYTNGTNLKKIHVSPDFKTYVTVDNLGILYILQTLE
In kind it is functional.

Test [4] can be described thus: Luminescence Cell-Based Dose Confirmation HTS to Identify Activators of 5'UTR Stem-Loop Driven Alpha-Synuclein mRNA Translation in H4 Neuroglioblastoma Cells. [Related pubchem assays: 1829 (Project Summary), 1814 (Primary HTS)]. It is filed as functional.
The target in the next test is T3, Protein skinhead-1 (Caenorhabditis elegans, UniProt P34707).
T3 sequence (P34707 whole entry): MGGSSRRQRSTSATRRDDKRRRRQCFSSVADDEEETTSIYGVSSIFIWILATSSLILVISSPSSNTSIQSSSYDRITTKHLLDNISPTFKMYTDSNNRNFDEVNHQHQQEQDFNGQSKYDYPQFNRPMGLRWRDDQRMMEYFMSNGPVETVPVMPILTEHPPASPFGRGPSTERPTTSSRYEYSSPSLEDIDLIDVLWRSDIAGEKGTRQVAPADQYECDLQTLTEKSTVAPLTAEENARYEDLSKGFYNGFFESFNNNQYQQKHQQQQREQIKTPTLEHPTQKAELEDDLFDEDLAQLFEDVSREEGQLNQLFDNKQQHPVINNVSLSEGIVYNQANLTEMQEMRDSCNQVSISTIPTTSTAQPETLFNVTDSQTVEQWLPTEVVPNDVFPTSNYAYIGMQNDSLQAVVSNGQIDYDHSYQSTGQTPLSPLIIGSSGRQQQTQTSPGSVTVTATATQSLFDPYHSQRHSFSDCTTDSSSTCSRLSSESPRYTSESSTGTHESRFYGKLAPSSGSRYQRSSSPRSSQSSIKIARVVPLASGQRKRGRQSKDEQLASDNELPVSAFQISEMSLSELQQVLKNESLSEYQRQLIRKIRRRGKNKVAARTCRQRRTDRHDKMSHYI
In kind it is functional.

A short description of test [5]: Shn3 3'UTR reporter inhibitors, dose response, cell-based, Clone20 osteoblasts, firefly luciferase, cherry-picked (AID 624132).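 Also: firefly luciferase luminescence from reporter carrying the Shn3 3'UTR in osteoblasts.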 In kind it is functional.
Test [6] is described as follows: control 3'UTR Renilla luciferase suppression, dose response, counter-screen for Shn3 inhibitor project, cell-based, Clone20-Shn3RL, cherry-picked (AID 624133). It is filed as functional.
A short description of test [7]: Luminescence Cell-Based Dose Retest to Confirm Inhibitors of Cancer Stem Cells. [Related pubchem assays (depositor defined):AID2717, AID2721]. In kind it is functional. Conditions: Homo sapiens.
Another test has as its system INS1. Briefly: beta cell apoptosis inhibitors, cytokine rescue, dose response, luminescence, retest (AID 449756).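 Also: cell death triggered by IL-1 beta plus TNF-alpha plus IFN-gamma mixture; protective hits raise ATP signal compared with cytokine alone wells.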 It is filed as functional, cell-based. The following applies: Rattus norvegicus.
Test [8] in a line: nonselective inhibitors of cellular cAMP signaling, dose response, counter-screen for MC4R biased antagonist project, cell-based, TR-FRET cAMP detection (AID 602305).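 Also: U2OS cells stimulated with forskolin near its EC80 as the cAMP inducer; potency is for inhibition of forskolin-stimulated cAMP signaling.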 It is filed as functional.
The target in test [9] is T4, Melanocortin receptor 4 (Homo sapiens, UniProt P32245). The experiment in a line: MC4R antagonist potency on cAMP, dose response, cell-based, TR-FRET, biased antagonists (AID 602298).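 Also: antagonist potency against agonist-stimulated cAMP production.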 In kind it is functional.
A short description of test [10]: HepG2 cell cytotoxicity, dose response, cytotoxicity control for Shn3 inhibitor project, CellTiter-Glo, cherry-picked (AID 624134). It is filed as functional, cell-based.
Test [11] is described as follows: Fluorescence-based cell-based high throughput dose response assay for inhibitors of the interaction of nucleotide-binding oligomerization domain containing 2 (NOD2) and the receptor-interacting serine-threonine kinase 2 (RIPK2). In kind it is functional. Conditions: Homo sapiens.
The next test has as its target Cytochrome P450 3A4 (Homo sapiens, UniProt P08684).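 Also: CYP3A4 tested as one member of a cytochrome P450 panel screen.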
Test [12] can be described thus: THP-1 cell cytotoxicity, cytotoxicity control, set 4 (AID 504911). In kind it is functional. Conditions: Mycobacterium tuberculosis.
Test [13] addresses T4, Melanocortin receptor 4. In kind it is functional, cell-based.
A further test relates to A-375. Briefly: A375 melanoma cell viability reduction, dose response, counter-screen for MITF modulator project, cherry-pick samples, set 2 (AID 540335). It is filed as functional, cell-based. Conditions: Homo sapiens.
The target in test [14] is T5, Microphthalmia-associated transcription factor (Homo sapiens, UniProt O75030).
T5 sequence (O75030 whole entry): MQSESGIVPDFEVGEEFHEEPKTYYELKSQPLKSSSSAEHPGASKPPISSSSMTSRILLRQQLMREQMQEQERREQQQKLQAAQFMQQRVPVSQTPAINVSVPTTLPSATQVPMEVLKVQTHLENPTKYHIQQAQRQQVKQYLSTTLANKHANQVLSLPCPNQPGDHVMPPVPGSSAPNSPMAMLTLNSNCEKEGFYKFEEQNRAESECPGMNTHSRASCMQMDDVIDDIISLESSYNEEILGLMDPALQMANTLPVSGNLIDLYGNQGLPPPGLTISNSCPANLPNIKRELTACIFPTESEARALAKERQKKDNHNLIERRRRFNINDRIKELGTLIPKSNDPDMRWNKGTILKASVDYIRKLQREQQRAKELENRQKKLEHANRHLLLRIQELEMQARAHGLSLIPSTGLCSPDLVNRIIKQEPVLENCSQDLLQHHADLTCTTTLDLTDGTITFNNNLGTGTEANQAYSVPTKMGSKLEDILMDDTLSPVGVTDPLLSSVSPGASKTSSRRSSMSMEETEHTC
The experiment in a line: TRPM1 promoter luciferase signal decrease, dose response, MITF inhibitor project, cell-based, SK-MEL-5, cherry-picked, set 3 (AID 493073).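 Also: SK-MEL-5 melanoma cells with luciferase driven by the MITF target TRPM1 promoter.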 It is filed as functional.

The source made the active and inactive calls.

T4 sequence (P32245 whole entry): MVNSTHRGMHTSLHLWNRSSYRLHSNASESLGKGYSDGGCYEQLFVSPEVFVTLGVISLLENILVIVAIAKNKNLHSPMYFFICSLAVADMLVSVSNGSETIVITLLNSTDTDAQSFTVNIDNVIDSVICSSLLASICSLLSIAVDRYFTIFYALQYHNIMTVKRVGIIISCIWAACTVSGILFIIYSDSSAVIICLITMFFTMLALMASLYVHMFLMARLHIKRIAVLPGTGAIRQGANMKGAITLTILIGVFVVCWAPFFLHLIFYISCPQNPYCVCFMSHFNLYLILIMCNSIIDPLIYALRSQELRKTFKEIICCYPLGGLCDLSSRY
Sequence of Cytochrome P450 3A4 (P08684 whole entry): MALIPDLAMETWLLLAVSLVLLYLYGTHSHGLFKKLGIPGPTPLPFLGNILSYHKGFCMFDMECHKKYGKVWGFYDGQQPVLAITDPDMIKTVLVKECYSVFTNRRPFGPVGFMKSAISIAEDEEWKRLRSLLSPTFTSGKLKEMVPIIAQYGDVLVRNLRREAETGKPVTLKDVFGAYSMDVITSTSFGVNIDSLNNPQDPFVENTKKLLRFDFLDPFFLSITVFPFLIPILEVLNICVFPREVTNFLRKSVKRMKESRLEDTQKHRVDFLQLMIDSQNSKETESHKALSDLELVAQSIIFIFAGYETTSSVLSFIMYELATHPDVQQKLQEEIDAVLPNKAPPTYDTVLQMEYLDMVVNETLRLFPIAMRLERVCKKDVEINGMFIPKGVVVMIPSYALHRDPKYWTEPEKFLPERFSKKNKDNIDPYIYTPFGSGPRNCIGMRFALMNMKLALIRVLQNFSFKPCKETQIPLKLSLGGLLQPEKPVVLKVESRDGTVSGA
Sequence of Genome polyprotein (P29990 2492-3391 limits assumed): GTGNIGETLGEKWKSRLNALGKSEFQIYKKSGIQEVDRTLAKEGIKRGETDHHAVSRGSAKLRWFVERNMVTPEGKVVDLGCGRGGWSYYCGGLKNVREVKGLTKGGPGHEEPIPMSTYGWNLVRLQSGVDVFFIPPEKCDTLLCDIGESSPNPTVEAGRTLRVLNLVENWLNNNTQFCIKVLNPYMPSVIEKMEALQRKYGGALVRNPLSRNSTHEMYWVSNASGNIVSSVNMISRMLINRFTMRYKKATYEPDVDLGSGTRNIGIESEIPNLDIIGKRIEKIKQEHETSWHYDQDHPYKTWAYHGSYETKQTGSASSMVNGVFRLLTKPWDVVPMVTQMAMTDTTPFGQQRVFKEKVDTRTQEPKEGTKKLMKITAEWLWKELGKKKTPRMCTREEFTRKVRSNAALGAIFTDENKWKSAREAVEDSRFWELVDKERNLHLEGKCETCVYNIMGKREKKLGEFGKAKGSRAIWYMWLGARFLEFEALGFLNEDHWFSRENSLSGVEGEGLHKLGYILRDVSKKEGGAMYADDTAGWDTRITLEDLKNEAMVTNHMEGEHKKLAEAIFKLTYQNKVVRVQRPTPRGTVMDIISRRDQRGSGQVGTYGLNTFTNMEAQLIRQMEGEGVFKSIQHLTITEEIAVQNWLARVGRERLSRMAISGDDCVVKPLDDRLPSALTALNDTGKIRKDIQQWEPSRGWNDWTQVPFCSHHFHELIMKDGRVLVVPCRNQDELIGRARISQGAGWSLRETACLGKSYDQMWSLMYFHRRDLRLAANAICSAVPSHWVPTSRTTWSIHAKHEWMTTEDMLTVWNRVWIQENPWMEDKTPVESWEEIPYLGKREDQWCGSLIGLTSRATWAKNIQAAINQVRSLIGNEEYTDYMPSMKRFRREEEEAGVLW

In the case of `NC(=O)C1=C(c2ccccc2)c2ccccc2C1=O`, the IC50 with H9c2 is > 79 µM (inactive); on Genome polyprotein, 59.5 µM (active). Besides, the CC50 with Vero is 32.1 µM (active). Moreover, the EC50 in [1] was 11.9 µM (active).
In the case of `COc1ccc2c(c1)Cc1sc(NC(=O)c3ccccc3)nc1-2`, the EC50 in the test with H4 was 4.58 µM (active); in test [2], 42.4 µM (active); in [4] it was 31.3 µM (active). Further, the IC50 in test [3] was 27.5 µM (active); at Protein skinhead-1, > 100 µM (inactive).
Consider `CC1=C(CO)C(=O)OC([C@@H](C)C2CC[C@H]3C4C[C@H]5O[C@]56[C@@H](O)C=CC(=O)[C@]6(C)C4CC[C@]23C)C1` (some centres not stated), for which the AC50 is 0.674 µM (active) in [5]; 1.99 µM (active) in [6]; 0.982 µM (active) in test [7]; 7.49 µM (active) in the test with INS1; 9.71 µM (active) in test [10]. The EC50 (with H4; in [2]; in [4]) was > 120 µM (not active) throughout. In addition, the values for the IC50 (in test [8]; on Melanocortin receptor 4 [9]; in [11]) were > 64.6 µM (inactive), > 64.6 µM (inactive) and 2.65 µM (active), respectively.
On to `CC1CC2(CCCCC2)N2C(=O)C(=O)c3cccc1c32` (configuration not stated), for which the IC50 in test [3] was 24.4 µM (active). In addition, the AC50 at Cytochrome P450 3A4 was 25.1 µM (inconclusive).
For `CCCc1cc(C(N)=S)ccn1` [PROTIONAMIDE], the CC50 in test [12] is > 100 µM (active).
With `CC(=O)Nc1cc(-c2ccccc2F)cn2c(-c3cccc(C(F)(F)F)c3)cnc12`, the EC50 at Melanocortin receptor 4 [13] is > 89.2 µM (inactive).
On to `COc1cccc2c1C(=O)C=C(C)C2=O`, for which the half-maximal activity concentration (AC50) is 37.8 µM (active) with A-375 and 7.83 µM (active) in test [14]. In addition, in [3], the IC50 is 14.4 µM (active).
